Our source for the Ki values is BindingDB's records for doi:10.3109/14756366.2011.595713 (Suven Life Sciences Ltd, 2012).

Sequence of 5-hydroxytryptamine receptor 6 (P50406 whole entry): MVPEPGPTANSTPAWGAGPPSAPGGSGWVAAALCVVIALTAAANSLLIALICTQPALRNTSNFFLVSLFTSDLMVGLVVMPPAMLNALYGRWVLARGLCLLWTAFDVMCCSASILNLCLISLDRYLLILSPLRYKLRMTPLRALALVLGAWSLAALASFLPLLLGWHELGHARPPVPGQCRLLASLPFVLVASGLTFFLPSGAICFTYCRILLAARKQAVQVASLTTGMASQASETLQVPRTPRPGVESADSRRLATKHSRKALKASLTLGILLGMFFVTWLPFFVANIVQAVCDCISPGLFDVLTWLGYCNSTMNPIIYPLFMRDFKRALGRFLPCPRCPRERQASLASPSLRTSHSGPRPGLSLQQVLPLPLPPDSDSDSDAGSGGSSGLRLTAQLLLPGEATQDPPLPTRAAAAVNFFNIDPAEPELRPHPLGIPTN

The experiment deals with 5-hydroxytryptamine receptor 6 (Homo sapiens, UniProt P50406). The experiment is described as follows: Radioligand-Binding Assay. The note with it: pH 7.4; 37 °C. As for the experimental part:
In brief, receptor source and radioligand used were human recombinant expressed in HEK-293 cells and [3H] LSD (60-80 Ci/mmol), respectively. The final ligand concentration was 1.5 nM and non-specific determinant was methiothepin mesylate ([…]). The reference compound and positive control is methiothepin mesylate. Reactions were carried out in 50 mM Tris-HCl (pH 7.4) containing 10 mM MgCl2, 0.5 mM EDTA for 60 min at 37°C. The reaction was terminated by rapid vacuum filtration onto glass fibre filters.
In turn, `CC(CC1=C2c3ccccc3S(=O)(=O)C2c2ccc(OCc3ccccc3)cc21)N(C)C` (stereo unspecified) [2-Benzyloxy-10-[(2-N,N-dimethylamino-2-methyl)ethyl]benzo[d]isothiazolo[3,2-a]indol-S,S-dioxide (18)] had a Ki of 100 nM. On to `CC(CC1=C2c3ccccc3S(=O)(=O)C2c2ccc(Br)cc21)N(C)C` (stereo unspecified) [2-Bromo-10-[(2-N,N-dimethylamino-2-methyl)ethyl]benzo[d]isothiazolo[3,2-a]indol-S,S-dioxide (13)], for which affinity was put at a Ki of 54.1 nM. Compared with the last molecule, the Ki is about 1.8-fold lower.

The molecule `CC(CC1=C2c3ccccc3S(=O)(=O)C2c2ccc(OCC3CCCCC3)cc21)N(C)C` (stereo unspecified) [2-Cyclohexylmethyloxy-10-[(2-N,N-dimethylamino-2-methyl)ethyl]benzo[d] isothiazolo[3,2-a]indol-S,S-dioxide (20)] registered a Ki of over 1000 nM. The value for `CCOc1ccc2c(c1)C(CC(C)N(C)C)=C1c3ccccc3S(=O)(=O)C12` (stereo unspecified) [2-Ethoxy-10-[(2-N,N-dimethylamino-2-methyl)ethyl]benzo[d]isothiazolo[3,2-a]indol-S,S-dioxide (17)] was 11.1 nM; that for `CC(C)Oc1ccc2c(c1)C(CC(C)N(C)C)=C1c3ccccc3S(=O)(=O)C12` (stereo unspecified) [2-Isopropoxy-10-[(2-N,N-dimethylamino-2-methyl)ethyl]benzo[d] isothiazolo[3,2-a]indol-S,S-dioxide (19)] was 239 nM. The molecule `COc1ccc2c(c1)C(CCN(C)C)=C1c3ccccc3S(=O)(=O)C12` (stereo unspecified) [2-Methoxy-10-(2-N,N-dimethylaminoethyl)benzo[d]isothiazolo[3,2-a]indol-S,S-dioxide (14)] came in with a Ki of 96 nM. This Ki is about 2.5-fold lower than that of the molecule before. With `CCC(CC1=C2c3ccccc3S(=O)(=O)C2c2ccc(OC)cc21)N(C)C` (stereo unspecified) [2-Methoxy-10-[(2-N,N-dimethylamino-2-ethyl)ethyl]benzo[d]isothiazolo[3,2-a]indol-S,S-dioxide (16)], the Ki was determined as 28.3 nM.

Molecule `COc1ccc2c(c1)C(CC(C)N(C)C)=C1c3ccccc3S(=O)(=O)C12` (stereo unspecified) [2-Methoxy-10-[(2-N,N-dimethylamino-2-methyl)ethyl)]benzo[d]isothiazolo[3,2-a]indol-S,S-dioxide (15)] registered a Ki of 11.6 nM. As for `CN(C)CCC1=C2c3ccccc3S(=O)(=O)C2c2ccc(F)cc21` (stereo unspecified) [10-(2-N,N-Dimethylaminoethyl)-2-fluorobenzo[d]isothiazolo[3,2-a]indol-S,S-dioxide (7)], the figure is 267 nM; as for `CN(C)CCC1=C2c3ccccc3S(=O)(=O)C2c2ccccc21` (stereo unspecified) [10-(2-N,N-Dimethylaminoethyl)benzo[d]isothiazolo[3,2-a]indol-S,S-dioxide (6)], 246 nM; as for `CN(C)CCC1=C2c3ccccc3CC2c2c1ccc1ccccc21` (stereo unspecified) [10-(2-N,N-dimethylaminoethyl)benzo[d]isoindolo[2,1-a]indole (28)], 92.6 nM.

Broadly, the Ki is the dissociation constant of the complex between target and ligand, obtained from inhibition or displacement.
